Measured values: ChEMBL document CHEMBL5576092, “Iron(III) Binding Properties of PF1140, a Fungal N-Hydroxypyridone, and Activity against Mycoplasma genitalium” (J Nat Prod, 2024)
Values after ≈ are worked out from the molar mass of the structure shown. Active and inactive are the calls of the source. The rule behind the calls is not given here.

What was measured:
[1] = tested on: Mycoplasma genitalium; assay: Antibacterial activity against Mycoplasma genitalium G37 assessed as bacterial growth inhibition incubated for 7 days by microbroth dilution assay; assay type: functional; settings: Mycoplasmoides genitalium, G37, 168 h; time 7 day
[2] = Selectivity index, ratio of IC50 for human WIL-2N cells to IC50 for Mycoplasma genitalium G37; assay type: toxicity; settings: read-out: Ratio IC50
[3] = tested on: Mycoplasma genitalium; assay: Antibacterial activity against Mycoplasma genitalium at >0.3 uM; assay type: functional, organism-based; settings: Mycoplasmoides genitalium
[4] = tested on: Mycoplasma genitalium; assay: Antibacterial activity against Mycoplasma genitalium G37 assessed as bacterial growth inhibition at 0.29 to 0.58 uM incubated for 7 days by time-kill assay; assay type: functional, organism-based; settings: Mycoplasmoides genitalium, dose 0.29-0.58 µM, time 7.0 day
[5] = tested on: Mycoplasma genitalium; assay: Antibacterial activity against Mycoplasma genitalium M2282 assessed as bacterial growth inhibition incubated for 7 days by microbroth dilution assay; assay type: functional; settings: Mycoplasmoides genitalium, M2282, 168 h; time 7 day
[6] = tested on: Mycoplasma genitalium; assay: Antibacterial activity against Mycoplasma genitalium at 0.28 to 1.12 measured after >1 month; assay type: functional, organism-based; settings: Mycoplasmoides genitalium; time > 1.0 months
[7] = tested on: Mycoplasma genitalium; assay: Bacteriostatic activity against Mycoplasma genitalium G37 assessed as bacterial growth inhibition at 4 times MIC measured after 7 days by time-kill assay relative to control; assay type: functional, Mycoplasmoides genitalium; parameters: scale not given: the % may be the effect or the level left; settings: time 7 day
[8] = Selectivity index, ratio of IC50 for African green monkey Vero cells to IC50 for Mycoplasma genitalium G37; assay type: toxicity; settings: read-out: Ratio IC50
[9] = Metal chelating activity assessed as compound-calcium complex formation by UV-Vis spectrophotometric analysis
[10] = Metal chelating activity assessed as compound-Fe3+ complex formation by UV-Vis spectrophotometric analysis
[11] = Metal chelating activity assessed as compound-zinc complex formation by UV-Vis spectrophotometric analysis
[12] = Metal chelating activity assessed as compound-Nickel complex formation by UV-Vis spectrophotometric analysis
[13] = Selectivity index, ratio of IC50 for human HepG2 cells to IC50 for Mycoplasma genitalium G37; assay type: toxicity; settings: read-out: Ratio IC50
[14] = Metal chelating activity assessed as compound-magnesium complex formation by UV-Vis spectrophotometric analysis
[15] = tested on: Mycoplasma genitalium; assay: Antibacterial activity against Mycoplasma genitalium assessed as bacterial growth inhibition in SP-4 broth medium supplemented with DPP at 0.08 to 0.64 uM measured after 2 hrs by absorbance based analysis; assay type: functional, organism-based; settings: Mycoplasmoides genitalium, dose 0.08-0.64 µM
[16] = tested on: Mycoplasma genitalium; assay: Antibacterial activity against Mycoplasma genitalium assessed as bacterial growth inhibition in SP-4 broth medium supplemented with DPP and ferric chloride at 0.64 uM measured after 2 hrs by absorbance based analysis; assay type: functional, organism-based; settings: Mycoplasmoides genitalium
[17] = tested on: Mycoplasma genitalium; assay: Antibacterial activity against Mycoplasma genitalium Sea-1 assessed as bacterial growth inhibition by qPCR analysis; assay type: functional, organism-based; settings: Mycoplasmoides genitalium
[18] = tested on: Mycoplasma genitalium; assay: Antibacterial activity against Mycoplasma genitalium G37 assessed as bacterial growth inhibition at 1.16 uM incubated for 7 days by time-kill assay relative to control; assay type: functional, Mycoplasmoides genitalium; parameters: scale not given: the % may be the effect or the level left; settings: time 7 day
[19] = Metal chelating activity assessed as compound-copper complex formation by UV-Vis spectrophotometric analysis
[20] = tested on: Mycoplasma genitalium; assay: Antibacterial activity against Mycoplasma genitalium M2300 assessed as bacterial growth inhibition incubated for 7 days by microbroth dilution assay; assay type: functional; settings: Mycoplasmoides genitalium, M2300, 168 h; time 7 day
[21] = tested on: Mycoplasma genitalium; assay: Antibacterial activity against Mycoplasma genitalium Sea-2 assessed as bacterial growth inhibition incubated for 7 days by microbroth dilution assay; assay type: functional; settings: Mycoplasmoides genitalium, Sea-2, 168 h; time 7 day
[22] = Metal chelating activity assessed as compound-Cobalt complex formation by UV-Vis spectrophotometric analysis
[23] = tested on: Mycoplasma genitalium; assay: Antibacterial activity against Mycoplasma genitalium G37 assessed as bacterial growth inhibition by qPCR analysis; assay type: functional, organism-based; settings: Mycoplasmoides genitalium
[24] = tested on: Mycoplasma genitalium; assay: Antibacterial activity against Mycoplasma genitalium assessed as bacterial growth inhibition in SP-4 broth medium supplemented with TPEN and zinc chloride at 0.64 uM measured after 2 hrs by absorbance based analysis; assay type: functional, organism-based; settings: Mycoplasmoides genitalium
[25] = tested on: Mycoplasma genitalium; assay: Antibacterial activity against Mycoplasma genitalium assessed as bacterial growth inhibition in SP-4 broth medium supplemented with TPEN at 0.64 uM measured after 2 hrs by absorbance based analysis; assay type: functional, organism-based; settings: Mycoplasmoides genitalium
[26] = tested on: Mycoplasma genitalium; assay: Antibacterial activity against Mycoplasma genitalium Sea-2 assessed as bacterial growth inhibition by qPCR analysis; assay type: functional, organism-based; settings: Mycoplasmoides genitalium
[27] = tested on: Mycoplasma genitalium; assay: Antibacterial activity against Mycoplasma genitalium Sea-1 assessed as bacterial growth inhibition incubated for 7 days by microbroth dilution assay; assay type: functional; settings: Mycoplasmoides genitalium, Sea-1, 168 h; time 7 day
[28] = Selectivity index, ratio of IC50 for human HeLa cells to IC50 for Mycoplasma genitalium G37; assay type: toxicity; settings: read-out: Ratio IC50
[29] = Metal chelating activity assessed as compound-manganese complex formation by UV-Vis spectrophotometric analysis
[30] = tested on: Mycoplasma genitalium; assay: Potentiation of hydrogen peroxide sensitivity in Mycoplasma genitalium assessed as reduction in bactericidal concentration of hydrogen peroxide at 0.32 uM measured after 7 days by checkerboard technique (reference value: 7 mM); assay type: functional, Mycoplasmoides genitalium; settings: time 7 day

COn1ccc2c(c1=O)[C@@H]1[C@@H](C)C[C@@H](C)C[C@]1(C)[C@@H](C)O2
MIC [1]: > 80 µM

C=C[C@H]1C[C@@H](C)C[C@@H](C)[C@@H]1c1c(O)ccn(O)c1=O
MIC [1]: > 95 µM

COn1ccc(O)c([C@@H]2[C@@H](C)C[C@@H](C)C[C@](C)(O)[C@H]2C)c1=O
MIC [1]: > 80 µM

C[C@@H]1C[C@H](C)[C@@H](c2c(O)cc[nH]c2=O)[C@H](C)[C@@](C)(O)C1 [DEOXYAKANTHOMYCIN]
MIC [1]: > 80 µM

C[C@@H]1C[C@H](C)[C@H]2c3c(ccn(O)c3=O)O[C@H](C)[C@@]2(C)C1
selectivity ratio [2]: > 32
Activity [3]: inactive
Activity [4]: Active
MIC [5]: 0.16 µM (≈ 0.0444 µg/mL)
Activity [6]: inactive
Activity [7]: >99.9%
selectivity ratio [8]: > 32
Activity [9]: inactive
Activity [10]: Active
Activity [11]: inactive
Activity [12]: inactive
selectivity ratio [13]: > 32
Activity [14]: inactive
Activity [15]: inactive
Activity [16]: Active
IC50 [17]: 100 nM
IC90 [17]: 120 nM
Activity [18]: 84.2%
Activity [19]: inactive
MIC [20]: 0.16 µM (≈ 0.0444 µg/mL)
MIC [21]: 0.32 µM (≈ 0.0888 µg/mL)
Activity [22]: inactive
IC50 [23]: 90 nM
IC90 [23]: 120 nM
Activity [24]: Active
Activity [25]: inactive
IC50 [26]: 60 nM
IC90 [26]: 110 nM
MIC [27]: 0.16 µM (≈ 0.0444 µg/mL)
selectivity ratio [28]: > 32
Activity [29]: inactive
Activity [30]: 1.8 mM
MIC [1]: 0.32 µM (≈ 0.0888 µg/mL)

C[C@@H]1C[C@H](C)[C@H]2c3c(cc[nH]c3=O)O[C@H](C)[C@@]2(C)C1
MIC [1]: > 80 µM
